Patent US20230013823A1, “INHIBITORS OF HUMAN IMMUNODEFICIENCY VIRUS REPLICATION” (VIV HEALTHCARE UK (No. 5) LIMITED, priority 2019, published 2023)
Read-outs that look alike come from different tables or passages of the source.

What was measured:
Format in all cases: cell-based
[1] = Compound cytotoxicity, XTT-based colorimetric assay; settings: human; uninfected MT2 cells, day 4, XTT
Protocol: (§1) Compound cytotoxicity and the corresponding CC50 values were determined using the same protocol as described in the antiviral assay except that uninfected cells were used. Cytotoxicity was assessed on day 4 in uninfected MT2 cells by using an XTT (2,3-bis[2-Methoxy-4-nitro-5-sulfophenyl]-2H-tetrazolium-5-carboxyanilide inner salt)-based colorimetric assay (Sigma-Aldrich, St Louis, Mo.).

[2] = system: recombinant NL4-3 virus (Renilla luciferase in nef); experiment: HIV cell culture assay (antiviral activity, luciferase readout in MT-2 cells)
In short: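 MT-2 cells were infected for 4-5 days with 293T-derived recombinant NL4-3 reporter virus in the presence of serially diluted compound. Antiviral activity was quantified as luciferase activity using a live-cell substrate. EC50 was derived from the median effect equation.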

[3] = system: uninfected MT2 cells; experiment: Compound cytotoxicity, XTT-based colorimetric assay; settings: day 4, XTT
Protocol: as §1

[4] = MT=2 cells infected for 4-5 days with the recombinant virus, luciferase activity, read-out: EC50

Question: What does the source list for `Cc1cc(-c2ccc3c(=O)n(-c4ccc(Cl)c5c(NS(C)(=O)=O)nn(C)c45)c([C@H](Cc4cc(F)cc(F)c4)NC(=O)Cn4nc(C(F)F)c5c4C(F)(F)[C@@H]4C[C@H]54)nc3c2)nn1CC(F)(F)C(F)(F)F` (atropisomer, axis not shown; (P)) [Example 60, N—((S)-1-((3P)-3-(4-chloro-1-methyl-3-(methylsulfonamido)-1H-indazol-7-yl)-7-(5-methyl-1-(2,2,3,3,3-pentafluoropropyl)-1H-pyrazol-3-yl)-4-oxo-3,4-dihydroquinazolin-2-yl)-2-(3,5-difluorophenyl)ethyl)-2-((3bS,4aR)-3-(difluoromethyl)-5,5-difluoro-3b,4,4a,5-tetrahydro-1H-cyclopropa[3,4]cyclopenta[1,2-c]pyrazol-1-yl)acetamide]?
Answer: CC50 at 4 days [1]: > 100 nM; EC50 ([2]; Renilla, NL43): 0.21 nM

Question: Which results are given for `Cn1nc(NS(C)(=O)=O)c2c(Cl)ccc(-n3c([C@H](Cc4cc(F)cc(F)c4)NC(=O)Cn4ccc(C5CC5)n4)nc4cc(-c5ccn(CC(C)(F)F)n5)ccc4c3=O)c21` (atropisomer, axis not shown; (P)) [Example 61, (S)—N-(1-((3P)-3-(4-chloro-1-methyl-3-(methylsulfonamido)-1H-indazol-7-yl)-7-(1-(2,2-difluoropropyl)-1H-pyrazol-3-yl)-4-oxo-3,4-dihydroquinazolin-2-yl)-2-(3,5-difluorophenyl)ethyl)-2-(3-cyclopropyl-1H-pyrazol-1-yl)acetamide]?
Answer: CC50 at 4 days [1]: > 100 nM; EC50 ([2]; Renilla, NL43): 0.057 nM

Question: Which CC50 at 4 days [1] does the source give for `Cn1nc(NS(C)(=O)=O)c2c(Cl)ccc(-n3c([C@H](Cc4cc(F)cc(F)c4)NC(=O)Cn4ccc(C5CC5)n4)nc4cc(-c5ccn(CC(F)(F)C(F)F)n5)ccc4c3=O)c21` (atropisomer, axis not shown; (P)) [Example 63, (S)—N-(1-((3P)-3-(4-chloro-1-methyl-3-(methylsulfonamido)-1H-indazol-7-yl)-4-oxo-7-(1-(2,2,3,3-tetrafluoropropyl)-1H-pyrazol-3-yl)-3,4-dihydroquinazolin-2-yl)-2-(3,5-difluorophenyl)ethyl)-2-(3-cyclopropyl-1H-pyrazol-1-yl)acetamide] here?
Answer: Its CC50 at 4 days is > 100 nM.

Question: What about the EC50 ([2]; Renilla, NL43) of the same compound?
Answer: The EC50 was 0.043 nM.

Question: Which CC50 at 4 days [1] does the source give for `CC(F)(F)Cn1ccc(-c2ccc3c(=O)n(-c4ccc(Cl)c5c(NS(C)(=O)=O)nn(CC(F)F)c45)c([C@H](Cc4cc(F)cc(F)c4)NC(=O)Cn4nc(C(F)F)c5c4C(F)(F)[C@@H]4C[C@H]54)nc3c2)n1` (atropisomer, axis not shown; (P)) [Example 64, N—((S)-1-((3P)-3-(4-chloro-1-(2,2-difluoroethyl)-3-(methylsulfonamido)-1H-indazol-7-yl)-7-(1-(2,2-difluoropropyl)-1H-pyrazol-3-yl)-4-oxo-3,4-dihydroquinazolin-2-yl)-2-(3,5-difluorophenyl)ethyl)-2-((3bS,4aR)-3-(difluoromethyl)-5,5-difluoro-3b,4,4a,5-tetrahydro-1H-cyclopropa[3,4]cyclopenta[1,2-c]pyrazol-1-yl)acetamide] here?
Answer: Its CC50 at 4 days is > 100 nM.

Question: And the EC50 ([2]; Renilla, NL43)?
Answer: Its EC50 is 0.087 nM.

Question: For `C[C@H](C(=O)N[C@@H](Cc1cc(F)cc(F)c1)c1nc2cc(-c3ccn(CC(C)(F)F)n3)ccc2c(=O)n1-c1ccc(Cl)c2c(NS(C)(=O)=O)nn(C)c12)n1ccc(C2CC2)n1` (atropisomer, axis not shown; (P)) [Example 65, (R)—N—((S)-1-((3P)-3-(4-chloro-1-methyl-3-(methylsulfonamido)-1H-indazol-7-yl)-7-(1-(2,2-difluoropropyl)-1H-pyrazol-3-yl)-4-oxo-3,4-dihydroquinazolin-2-yl)-2-(3,5-difluorophenyl)ethyl)-2-(3-cyclopropyl-1H-pyrazol-1-yl)propanamide], which CC50 at 4 days [1] is on record?
Answer: The CC50 at 4 days was > 100 nM.

Question: What about the EC50 ([2]; Renilla, NL43) of the same compound?
Answer: Its EC50 is 0.17 nM.

Question: For `Cn1nc(NS(C)(=O)=O)c2c(Cl)ccc(-n3c([C@H](Cc4cc(F)cc(F)c4)NC(=O)Cn4nc(C(F)(F)F)c5c4C(F)(F)[C@@H]4C[C@H]54)nc4cc(-c5ccn(CC(C)(F)F)n5)ccc4c3=O)c21` (atropisomer, axis not shown; (P)) [Example 66, N—((S)-1-((3P)-3-(4-chloro-1-methyl-3-(methylsulfonamido)-1H-indazol-7-yl)-7-(1-(2,2-difluoropropyl)-1H-pyrazol-3-yl)-4-oxo-3,4-dihydroquinazolin-2-yl)-2-(3,5-difluorophenyl)ethyl)-2-((3bS,4aR)-5,5-difluoro-3-(trifluoromethyl)-3b,4,4a,5-tetrahydro-1H-cyclopropa[3,4]cyclopenta[1,2-c]pyrazol-1-yl)acetamide], which CC50 at 4 days [1] is on record?
Answer: The CC50 at 4 days was > 100 nM.

Question: What about the EC50 ([2]; Renilla, NL43) of the same compound?
Answer: The EC50 was 0.069 nM.

Question: With `Cc1cc(-c2ccc3c(=O)n(-c4ccc(Cl)c5c(NS(C)(=O)=O)nn(C)c45)c([C@H](Cc4cc(F)cc(F)c4)NC(=O)Cn4nc(C(F)F)c5c4C(F)(F)[C@@H]4C[C@H]54)nc3c2)nn1CC(C)(F)F` (atropisomer, axis not shown; (P)) [Example 68, N—((S)-1-((3P)-3-(4-chloro-1-methyl-3-(methylsulfonamido)-1H-indazol-7-yl)-7-(1-(2,2-difluoropropyl)-5-methyl-1H-pyrazol-3-yl)-4-oxo-3,4-dihydroquinazolin-2-yl)-2-(3,5-difluorophenyl)ethyl)-2-((3bS,4aR)-3-(difluoromethyl)-5,5-difluoro-3b,4,4a,5-tetrahydro-1H-cyclopropa[3,4]cyclopenta[1,2-c]pyrazol-1-yl)acetamide] as the compound, how does the CC50 at 4 days [1] read?
Answer: Its CC50 at 4 days is > 100 nM.

Question: What about the EC50 ([2]; Renilla, NL43) of the same compound?
Answer: The EC50 was 0.096 nM.

Question: With `CC(F)(F)Cn1ccc(-c2ccc3c(=O)n(-c4ccc(Cl)c5c(NS(=O)(=O)C6CC6)nn(CC(F)F)c45)c([C@H](Cc4cc(F)cc(F)c4)NC(=O)Cn4nc(C(F)F)c5c4C(F)(F)[C@@H]4C[C@H]54)nc3c2)n1` (atropisomer, axis not shown; (P)) [Example 69, N—((S)-1-((3P)-3-(4-chloro-3-(cyclopropanesulfonamido)-1-(2,2-difluoroethyl)-1H-indazol-7-yl)-7-(1-(2,2-difluoropropyl)-1H-pyrazol-3-yl)-4-oxo-3,4-dihydroquinazolin-2-yl)-2-(3,5-difluorophenyl)ethyl)-2-((3bS,4aR)-3-(difluoromethyl)-5,5-difluoro-3b,4,4a,5-tetrahydro-1H-cyclopropa[3,4]cyclopenta[1,2-c]pyrazol-1-yl)acetamide] as the compound, how does the CC50 at 4 days [1] read?
Answer: The CC50 at 4 days was > 100 nM.

Question: What about the EC50 ([2]; Renilla, NL43) of the same compound?
Answer: Its EC50 is 0.16 nM.

Question: With `CC(C(=O)NC(Cc1cc(F)cc(F)c1)c1nc2cc(-c3ccn(CC(C)(F)F)n3)ccc2c(=O)n1-c1ccc(Cl)c2c(NS(C)(=O)=O)nn(C)c12)n1ccc(C2CC2)n1` [Example 58, (S)—N—((S)-1-((3P)-3-(4-chloro-1-methyl-3-(methylsulfonamido)-1H-indazol-7-yl)-7-(1-(2,2-difluoropropyl)-1H-pyrazol-3-yl)-4-oxo-3,4-dihydroquinazolin-2-yl)-2-(3,5-difluorophenyl)ethyl)-2-(3-cyclopropyl-1H-pyrazol-1-yl)propanamide] as the compound, how does the CC50 [3] read?
Answer: The CC50 was > 100 nM.

Question: What about the EC50 [2, 4] of the same compound?
Answer: The EC50 was 0.046 nM.

Question: With `Cn1nc(NS(C)(=O)=O)c2c(Cl)ccc(-n3c([C@H](Cc4cc(F)cc(F)c4)NC(=O)Cn4nc(C(F)(F)F)c5c4C(F)(F)[C@@H]4C[C@H]54)nc4cc(-c5ccn(CC(F)(F)C(F)F)n5)ccc4c3=O)c21` [Example 59, N—((S)-1-((3P)-3-(4-chloro-1-methyl-3-(methylsulfonamido)-1H-indazol-7-yl)-4-oxo-7-(1-(2,2,3,3-tetrafluoropropyl)-1H-pyrazol-3-yl)-3,4-dihydroquinazolin-2-yl)-2-(3,5-difluorophenyl)ethyl)-2-((3bS,4aR)-5,5-difluoro-3-(trifluoromethyl)-3b,4,4a,5-tetrahydro-1H-cyclopropa[3,4]cyclopenta[1,2-c]pyrazol-1-yl)acetamide] as the compound, how does the CC50 [3] read?
Answer: Its CC50 is > 100 nM.

Question: And the EC50 [2, 4]?
Answer: The EC50 was 0.11 nM.

Question: With `CS(=O)(=O)Nc1nn(CCCF)c2c(-n3c([C@H](Cc4cc(F)cc(F)c4)NC(=O)Cn4nc(C(F)F)c5c4C(F)(F)[C@@H]4C[C@H]54)nc4cc(-c5ccnn5CC(F)(F)C(F)F)ccc4c3=O)ccc(Cl)c12` [Example 62, N—((S)-1-((3P)-3-(4-chloro-1-(3-fluoropropyl)-3-(methylsulfonamido)-1H-indazol-7-yl)-4-oxo-7-(1-(2,2,3,3-tetrafluoropropyl)-1H-pyrazol-5-yl)-3,4-dihydroquinazolin-2-yl)-2-(3,5-difluorophenyl)ethyl)-2-((3bS,4aR)-3-(difluoromethyl)-5,5-difluoro-3b,4,4a,5-tetrahydro-1H-cyclopropa[3,4]cyclopenta[1,2-c]pyrazol-1-yl)acetamide] as the compound, how does the CC50 at 4 days [1] read?
Answer: Its CC50 at 4 days is > 100 nM.

Question: What about the EC50 ([2]; Renilla, NL43) of the same compound?
Answer: The EC50 was 0.074 nM.

Question: Which results are given for `CS(=O)(=O)Nc1nn(CCCF)c2c(-n3c([C@H](Cc4cc(F)cc(F)c4)NC(=O)Cn4nc(C(F)F)c5c4C(F)(F)[C@@H]4C[C@H]54)nc4cc(-c5ccn(CC(F)(F)C(F)F)n5)ccc4c3=O)ccc(Cl)c12` [Example 67, N—((S)-1-((3P)-3-(4-chloro-1-(3-fluoropropyl)-3-(methylsulfonamido)-1H-indazol-7-yl)-4-oxo-7-(1-(2,2,3,3-tetrafluoropropyl)-1H-pyrazol-3-yl)-3,4-dihydroquinazolin-2-yl)-2-(3,5-difluorophenyl)ethyl)-2-((3bS,4aR)-3-(difluoromethyl)-5,5-difluoro-3b,4,4a,5-tetrahydro-1H-cyclopropa[3,4]cyclopenta[1,2-c]pyrazol-1-yl)acetamide]?
Answer: CC50 at 4 days [1]: > 100 nM; EC50 ([2]; Renilla, NL43): 0.049 nM
